For assay [1], the target named is T1, Serine/threonine-protein kinase D3 (Homo sapiens) (UniProt O94806).
T1 sequence (whole entry): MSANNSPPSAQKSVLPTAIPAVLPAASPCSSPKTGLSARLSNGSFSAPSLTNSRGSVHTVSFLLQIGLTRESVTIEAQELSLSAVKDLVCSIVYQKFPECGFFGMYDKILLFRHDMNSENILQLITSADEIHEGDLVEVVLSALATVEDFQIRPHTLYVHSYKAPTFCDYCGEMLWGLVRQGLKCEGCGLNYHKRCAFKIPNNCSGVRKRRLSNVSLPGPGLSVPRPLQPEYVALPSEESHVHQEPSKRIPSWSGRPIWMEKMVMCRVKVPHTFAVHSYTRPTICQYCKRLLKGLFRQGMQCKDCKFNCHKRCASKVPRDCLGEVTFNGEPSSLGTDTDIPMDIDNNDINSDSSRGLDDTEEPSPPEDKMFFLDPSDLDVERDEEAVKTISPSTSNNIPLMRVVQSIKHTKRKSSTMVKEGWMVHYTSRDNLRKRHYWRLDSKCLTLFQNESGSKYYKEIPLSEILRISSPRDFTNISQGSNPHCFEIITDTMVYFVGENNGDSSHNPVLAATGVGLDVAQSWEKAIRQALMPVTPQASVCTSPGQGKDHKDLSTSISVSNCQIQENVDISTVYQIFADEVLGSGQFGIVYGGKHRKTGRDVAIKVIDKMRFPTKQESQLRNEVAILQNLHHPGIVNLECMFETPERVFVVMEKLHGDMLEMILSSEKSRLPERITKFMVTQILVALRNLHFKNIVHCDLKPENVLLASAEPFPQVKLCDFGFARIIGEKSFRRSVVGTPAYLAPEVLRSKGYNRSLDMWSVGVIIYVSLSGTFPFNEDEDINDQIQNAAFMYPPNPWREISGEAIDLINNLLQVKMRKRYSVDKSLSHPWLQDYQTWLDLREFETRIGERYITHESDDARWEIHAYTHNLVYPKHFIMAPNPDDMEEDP
Put plainly: Inhibition of PRKD3 (unknown origin) assessed as residual activity at 1000 nM by KINOMEscan analysis relative to control.

For assay [2], the target named is T2, Discoidin domain-containing receptor 2 (Homo sapiens) (UniProt Q16832).
T2 sequence (whole entry): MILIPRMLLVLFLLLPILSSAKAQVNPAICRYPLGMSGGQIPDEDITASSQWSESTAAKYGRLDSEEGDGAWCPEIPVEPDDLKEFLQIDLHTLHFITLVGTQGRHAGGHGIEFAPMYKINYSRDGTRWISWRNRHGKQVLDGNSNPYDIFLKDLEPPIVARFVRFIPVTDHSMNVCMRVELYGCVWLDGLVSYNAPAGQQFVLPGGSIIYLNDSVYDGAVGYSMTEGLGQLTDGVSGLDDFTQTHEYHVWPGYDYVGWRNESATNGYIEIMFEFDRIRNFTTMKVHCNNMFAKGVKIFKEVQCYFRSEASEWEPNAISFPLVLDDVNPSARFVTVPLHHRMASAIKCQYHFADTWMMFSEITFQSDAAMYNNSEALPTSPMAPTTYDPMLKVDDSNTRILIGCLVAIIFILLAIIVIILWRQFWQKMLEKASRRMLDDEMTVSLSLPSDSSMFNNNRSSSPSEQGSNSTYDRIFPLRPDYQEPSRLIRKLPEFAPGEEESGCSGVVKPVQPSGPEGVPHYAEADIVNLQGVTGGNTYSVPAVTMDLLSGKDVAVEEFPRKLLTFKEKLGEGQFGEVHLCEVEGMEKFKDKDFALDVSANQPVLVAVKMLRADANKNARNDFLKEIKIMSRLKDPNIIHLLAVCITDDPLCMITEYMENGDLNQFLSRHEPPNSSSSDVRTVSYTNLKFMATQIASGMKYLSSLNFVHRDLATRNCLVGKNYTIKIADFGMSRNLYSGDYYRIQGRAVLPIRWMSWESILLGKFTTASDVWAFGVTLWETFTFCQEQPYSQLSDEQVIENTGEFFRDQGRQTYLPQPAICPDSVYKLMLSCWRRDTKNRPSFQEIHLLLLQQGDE
Put plainly: Inhibition of DDR2 (unknown origin) assessed as residual activity at 1000 nM by KINOMEscan analysis relative to control.

Assay [3] concerns the target T3, Serine/threonine-protein kinase DCLK3 (Homo sapiens) (UniProt Q9C098).
T3 sequence (whole entry): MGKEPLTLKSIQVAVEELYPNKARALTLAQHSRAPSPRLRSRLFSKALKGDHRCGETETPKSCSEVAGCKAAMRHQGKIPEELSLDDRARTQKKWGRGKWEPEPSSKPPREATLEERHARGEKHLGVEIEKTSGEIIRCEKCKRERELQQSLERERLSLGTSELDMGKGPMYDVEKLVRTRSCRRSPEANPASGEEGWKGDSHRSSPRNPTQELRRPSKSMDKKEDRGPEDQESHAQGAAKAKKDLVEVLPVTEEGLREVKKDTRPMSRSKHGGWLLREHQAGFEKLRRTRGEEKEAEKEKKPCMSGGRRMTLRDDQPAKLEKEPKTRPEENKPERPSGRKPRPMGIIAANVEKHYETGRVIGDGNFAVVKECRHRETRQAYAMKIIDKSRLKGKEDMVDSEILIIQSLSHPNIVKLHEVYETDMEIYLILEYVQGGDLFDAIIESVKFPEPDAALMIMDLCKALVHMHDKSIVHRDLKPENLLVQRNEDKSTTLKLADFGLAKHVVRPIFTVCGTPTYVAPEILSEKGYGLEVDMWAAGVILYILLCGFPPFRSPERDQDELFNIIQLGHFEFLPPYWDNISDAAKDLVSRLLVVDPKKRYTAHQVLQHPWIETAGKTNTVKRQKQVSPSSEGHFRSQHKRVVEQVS
Put plainly: Inhibition of DCAMKL3 (unknown origin) assessed as residual activity at 1000 nM by KINOMEscan analysis relative to control.

The record followed here is ChEMBL document CHEMBL5678818, “Discovery of potent SOS1 inhibitors that block RAS activation via disruption of the RAS-SOS1 interaction” (Proc Natl Acad Sci U S A, 2019).

Regarding `COc1cc2nc(C)nc(N[C@H](C)c3cccc(-c4cn[nH]c4)c3)c2cc1OC`, the Activity in assay [1] is 100%; in assay [2], 97%; in assay [3] it was 73%.

With `COc1cc2ncnc(N[C@H](C)c3cccc4ccccc34)c2cc1OC`, the Activity in assay [1] is 100%; in assay [2] it was 67%; in assay [3], 100%.
